# Assay results reported in patent US20110070357A1, “Apparatus and Methods for Loading a Drug Eluting Medical Device” (Medtronic Vascular, Inc., priority 2009, published 2011).
# Experiment: solubility of sirolimus in solvents / dispersion media
# Assay type: physicochemical
# Description: Solution 524 is a homogeneous mixture in which therapeutic substance 112 dissolves within a solvent or a solvent mixture. In one embodiment, solution 524 includes a high-capacity solvent 528 which is an organic solvent that has a high capacity to dissolve therapeutic substance 112. High capacity as utilized herein is defined as an ability to dissolve therapeutic substance 112 at concentrations greater than 500 mg of substance per milliliter of solvent. Examples of high capacity drug dissolving solvents for sirolimus and similar substances include but are not limited to tetrahydrofuran (THF), di-chloromethane (DCM), chloroform, and di-methyl-sulfoxide (DMSO). In addition to the high-capacity solvent, solution 524 may include an excipient 526 in order to assist in drug elution. In one embodiment, excipient 526 may be a surfactant such as but not limited to sorbitan fatty acid esters such as sorbitan monooleate and sorbitan monolaurate, polysorbates such as polysorbate 20, polysorbate 60, and polysorbate 80, cyclodextrins such as 2-hydroxypropyl-beta-cyclodextrin and 2,6-di-O-methyl-beta-cyclodextrin, sodium dodecyl sulfate, octyl glucoside, and low molecular weight poly(ethylene glycol)s. In another embodiment, excipient 526 may be a hydrophilic agent such as but not limited to salts such as sodium chloride and other materials such as urea, citric acid, and ascorbic acid. […]
smiles,measurement,setting,value
CO[C@H]1C[C@@H]2CC[C@@H](C)[C@@](O)(O2)C(=O)C(=O)N2CCCC[C@H]2C(=O)O[C@H]([C@H](C)C[C@@H]2CC[C@@H](O)[C@H](OC)C2)CC(=O)[C@H](C)/C=C(\C)[C@@H](O)[C@@H](OC)C(=O)[C@H](C)C[C@H](C)/C=C/C=C/C=C/1C [sirolimus],solubility in hexane,hexane,insoluble in hexane
same,solubility in water,water,insoluble in water
